The values that follow come from publication PMC10186366 (ACS Pharmacology & Translational Science, 2023).

A value given as a limit tells only on which side of the number the result lay.

For one experiment, the system named is KB tumor cells. Nature of the experiment: Metabolite rescue of growth inhibition in KB cells. The class given is cell-based, human. The settings on record: glycine- and nucleoside-free media; for Protection from growth inhibition by glycine plus adenosine over adenosine alone: 160 μM glycine combined with 60 μM adenosine; for Protection from growth inhibition by adenosine: inhibitor up to 1000 nM, 60 μM adenosine alone. The protocol:
Upper panel: schematic of C1 metabolism. Undefined abbreviations include the following: DHF, dihydrofolate; THF, tetrahydrofolate; FAICAR, formyl 5-aminoimidazole-4-carboxamide ribonucleotide; fGAR, formyl GAR; and 5,10-meTHF, 5,10-methylene tetrahydrofolate. Lower panels: KB cells were plated (4000 cells/well) in glycine-, nucleoside-, and folate-free RPMI 1640 medium with 10% dialyzed fetal bovine serum, antibiotics, L-glutamine, and 2 nM leucovorin over a range of inhibitor concentrations in the presence of adenosine (60 μM), glycine (160 μM), thymidine (10 μM), or AICA (320 μM). As shown, combined glycine plus adenosine or AICA was also tested to identify potential mitochondrial C1 targeting.[45] Cell proliferation was assayed with a fluorescence-based assay.[26] Data are representative of at least triplicate experiments (presented as mean values plus/minus standard errors). Methods are described in the Experimental Section, and additional metabolite rescue data for 4, 5, and 8–11 are presented in Figure S3 (Supporting Information).
Metabolite “rescue” experiments have been used to identify targeted pathways for novel antifolate inhibitors including de novo purine nucleotide and thymidylate biosynthesis (protection by adenosine and thymidine, respectively)[25]−[27],[29],[30],[32],[43],[45]−[47] and mitochondrial C1 metabolism (protection by glycine and adenosine).[45] To gain insights into the targeted pathways that contribute to the loss of KB tumor cell proliferation upon treatment with compounds 3–9, we tested the reversal of growth inhibition by the active compounds in Table 1 (up to 1000 nM) in glycine- and nucleoside-free media in the presence of 60 μM adenosine, 160 μM glycine, or 10 μM thymidine alone or with combined adenosine and glycine. The use of glycine- and nucleoside-free media for these experiments expands the ability to identify causal intracellular targets (including previously unrecognized mitochondrial targets[45]) that can be confirmed by targeted metabolomics and direct in vitro assays (below). […] The results of these experiments are shown in Figure 7 (lower panel) and in Figure S3 (Supporting Information).
AICA circumvents the first folate-dependent enzyme, GARFTase, and is directly metabolized to ZMP (AICAR), thus providing a substrate for AICARFTase[26],[32],[46] (Figure 7, upper panel). This distinguishes primary inhibition at GARFTase (protection by AICA) versus AICARFTase (incomplete protection by AICA) for inhibitors of de novo purine biosynthesis.[25]
Additional proliferation assays with metabolite rescue used KB cells to identify the targeted pathway and enzyme(s) in folate- and glycine-free RPMI1640, DFBS, 2 mM glutamine, and antibiotics. […] These assays have been previously described.[25],[26],[45]

Experiment [1] relates to R2 (MTXRIIOuaR2-4) RFC-, PCFT-, and FRα-null CHO cells. Nature of the experiment: Cell proliferation assay, transporter-null R2 CHO subline. To be noted: Cricetulus griseus, transporter-null control cells, 96 h, up to 1000 nM, mean (standard error). It counts as cell-based, Chinese hamster. An excerpt:
(§1) We used a unique panel of engineered Chinese hamster ovary (CHO) sublines derived from a transporter-null MTXRIIOua^R2-4 CHO subline (R2) and designed to individually express human FRα (RT16), FRβ (D4), RFC (PC43-10), or PCFT (R2/PCFT).[39]−[42] As the CHO sublines are isogenic and differ only in the presence or absence of the human folate transporters, differences in the extent of inhibition of cell proliferation between the cell lines upon treatment with the various compounds provide a robust readout of transport specificities.[25],[26],[29],[30],[43]
(§2) The CHO sublines were treated for 96 h with a range of drug concentrations up to 1000 nM; cell viabilities were measured with a fluorescence assay.[26] […] As a control, we used transporter-null R2 cells.[42] To extend studies to human tumor cells, we also performed experiments in RFC-, PCFT-, and FRα-expressing KB tumor cells.[44] To confirm the contribution of FR-mediated uptake to antitumor activity, for KB cells, we added 200 nM folic acid, which inhibits FR uptake by direct competition without effects on either RFC or PCFT.[25],[26],[28]−[30],[43]
(§3) The MTXRIIOua^R2-4 RFC-, PCFT-, and FRα-null Chinese hamster ovary (CHO) cell line (R2) was a gift from Dr. Wayne Flintoff (University of Western Ontario).[40],[42] Isogenic CHO cell lines were subsequently derived from R2 cells by transfection with RFC, PCFT, or FRα cDNAs to generate PC43-10 (expresses only human RFC), R2/PCFT4 (expresses only human PCFT), RT16 (expresses only human FRα), and D4 (expresses only human FRβ).[25],[26],[39]
(§4) The CHO sublines were cultured in α-minimal essential medium (α-MEM) supplemented with 100 U/mL penicillin/100 μg/mL streptomycin, 2 mM L-glutamine, and 10% bovine calf serum (Sigma-Aldrich). For the PC43-10, R2/PCFT4, RT16, and D4 sublines, 1.5 mg/mL G418 was also added. Seventy-two hours prior to in vitro proliferation assays (below), RT16 and D4 CHO cells were grown in folate-free RPMI with dialyzed fetal bovine serum (DFBS) (Invitrogen) supplemented with 100 U/mL penicillin/[…] streptomycin and 2 mM L-glutamine. FRα-expressing KB nasopharyngeal carcinoma cells were acquired from the American Type Culture Collection (Manassas, VA); cells were grown in complete folate-free RPMI 1640 supplemented with 10% fetal bovine serum, 100 U/mL penicillin/100 μg/mL streptomycin, and 2 mM L-glutamine. Cell lines were authenticated by STR analysis (Genetica DNA Laboratories, Burlington, NC) and tested for Mycoplasma by PCR (Venor GeM Mycoplasma Detection Kit, Sigma). Frozen stocks were generated from authenticated Mycoplasma-free cultures.
(§5) Cell proliferation assays used CHO and KB cells cultured in folate-free-RPMI 1640 media with 10% DFBS, 2 mM L-glutamine, and 100 U/mL penicillin/100 μg/mL streptomycin supplemented with 2 nM (KB, RT16, D4) or 25 nM (R2, PC43-10, R2/PCFT4) leucovorin.[25],[26],[30] Parallel incubations with 200 nM folic acid were performed in viability assays to confirm FR-mediated drug uptake. Cells were plated in 96-well dishes at 2500–5000 cells/well in 200 μL media and treated with a range of C1 inhibitors spanning 0 to 1 μM. Cells were treated at 37 ° C with 5% CO2, and numbers were assayed after 96 h using CellTiter-blue (Promega, Madison, WI) and a fluorescence plate reader.[25],[26]

Experiment [2] relates to R2/PCFT4 CHO cells (expresses only human PCFT). Put plainly: Cell proliferation assay, R2/PCFT4 CHO subline. The class given is cell-based, Chinese hamster. The settings on record: 96 h, 25 nM leucovorin, mean (standard error).
Source text: as §1, §2, §3, §4, §5

Experiment [3] has as its system PC43-10 CHO cells (expresses only human RFC). Nature of the experiment: Cell proliferation assay, PC43-10 CHO subline. The class given is cell-based, Chinese hamster. The settings on record: 96 h, up to 1000 nM, 25 nM leucovorin, mean (standard error); for IC50: Homo sapiens, PC43-10.
Source text: as §1, §2, §3, §4, §5

For experiment [4], the system named is KB human tumor cells (RFC/FRα/PCFT). Nature of the experiment: Cell proliferation assay, KB tumor cells (with or without 200 nM folic acid). The class given is cell-based. To be noted: 96 h, 2 nM leucovorin, no folic acid, mean (standard error). The procedure:
as §2, §4, §5

For `Nc1nc2sc(CCCc3ccc(C(=O)N[C@@H](CCC(=O)O)C(=O)O)cc3)cc2c(=O)[nH]1` [Compound 1], the “Protection from growth inhibition by glycine plus adenosine over adenosine alone” value with KB tumor cells is “substantially enhanced and was complete”.

Turning to `Nc1nc2sc(CCCCc3cccc(C(=O)N[C@@H](CCC(=O)O)C(=O)O)n3)cc2c(=O)[nH]1` [Compound 3, (6-(4-(2-Amino-4-oxo-3,4-dihydrothieno[2,3-d]pyrimidin-6-yl)butyl)picolinoyl)-L-glutamic Acid], the concentration for half-maximal inhibition (IC50) in experiment [1], in experiment [2] and in experiment [3] was above 1000 nM in each case.

Take `Nc1nc2sc(CCCCc3ccc(C(=O)N[C@@H](CCC(=O)O)C(=O)O)nc3)cc2c(=O)[nH]1` [Compound 4, (5-(4-(2-Amino-4-oxo-3,4-dihydrothieno[2,3-d]pyrimidin-6-yl)butyl)picolinoyl)-L-glutamic Acid]: the “Protection from growth inhibition by glycine plus adenosine over adenosine alone” value in the experiment on KB tumor cells is “slightly and reproducibly enhanced”. In addition, in the experiment on KB tumor cells, the “Protection from growth inhibition by adenosine” value is “substantially protective”. In addition, the half-maximal inhibitory concentration (IC50) in experiment [1] was above 1000 nM; in experiment [2] it was 318 nM; in experiment [3] it was above 1000 nM; in experiment [4], 2.11 nM.

For the molecule `Nc1nc2sc(CCCCc3cnc(C(=O)N[C@@H](CCC(=O)O)C(=O)O)c(F)c3)cc2c(=O)[nH]1` [Compound 5, (5-(4-(2-Amino-4-oxo-3,4-dihydrothieno[2,3-d]pyrimidin-6-yl)butyl)-3-fluoropicolinoyl)-L-glutamic Acid], the “Protection from growth inhibition by adenosine” value in the experiment with KB tumor cells is reported as “completely protective”. Besides, the half-inhibitory concentration (IC50) in experiment [1] was above 1000 nM; in experiment [2], 344 nM; in experiment [3] it was above 1000 nM; in experiment [4], 5.05 nM.

For `Nc1nc2sc(CCCc3ccc(C(=O)N[C@@H](CCC(=O)O)C(=O)O)c(F)c3)cc2c(=O)[nH]1` [Compound 6, (4-(3-(2-Amino-4-oxo-3,4-dihydrothieno[2,3-d]pyrimidin-6-yl)propyl)-2-fluorobenzoyl)-L-glutamic Acid], in the experiment with KB tumor cells, the “Protection from growth inhibition by glycine plus adenosine over adenosine alone” value is “substantially enhanced and was complete”. Further, the IC50 was above 1000 nM in experiment [1], 591 nM in experiment [2], above 1000 nM in experiment [3] and 7.19 nM in experiment [4].

Consider `Nc1nc2sc(CCCCc3ccc(C(=O)N[C@@H](CCC(=O)O)C(=O)O)c(F)c3)cc2c(=O)[nH]1` [Compound 7, (4-(4-(2-Amino-4-oxo-3,4-dihydrothieno[2,3-d]pyrimidin-6-yl)butyl)-2-fluorobenzoyl)-L-glutamic Acid], for which the “Protection from growth inhibition by glycine plus adenosine over adenosine alone” value in the experiment on KB tumor cells was “slightly and reproducibly enhanced”. In addition, in the experiment with KB tumor cells, the “Protection from growth inhibition by adenosine” value is “substantially protective”. In addition, the IC50 was above 1000 nM in experiment [1], above 1000 nM in experiment [2], above 1000 nM in experiment [3] and 5.27 nM in experiment [4].

For the molecule `Nc1nc2sc(CCCc3csc(C(=O)N[C@@H](CCC(=O)O)C(=O)O)c3F)cc2c(=O)[nH]1` [Compound 8, (4-(3-(2-Amino-4-oxo-3,4-dihydrothieno[2,3-d]pyrimidin-6-yl)propyl)-3-fluorothiophene-2-carbonyl)-L-glutamic Acid], the “Protection from growth inhibition by adenosine” value with KB tumor cells is listed as “completely protective”. Also, the IC50 in experiment [1] is above 1000 nM; in experiment [2], above 1000 nM; in experiment [3], 560 nM; in experiment [4], 6.84 nM. In experiment [3], the “IC50 RFC PC43-10” value is listed as “slight inhibition”.

Turning to `Nc1nc2sc(CCCCc3csc(C(=O)N[C@@H](CCC(=O)O)C(=O)O)c3F)cc2c(=O)[nH]1` [Compound 9, (4-(4-(2-Amino-4-oxo-3,4-dihydrothieno[2,3-d]pyrimidin-6-yl)butyl)-3-fluorothiophene-2-carbonyl)-L-glutamic Acid], the “Protection from growth inhibition by glycine plus adenosine over adenosine alone” value with KB tumor cells is “slightly and reproducibly enhanced”. In addition, the “Protection from growth inhibition by adenosine” value with KB tumor cells is listed as “substantially protective”. Further, the concentration for half-maximal inhibition (IC50) is above 1000 nM in experiment [1], 167 nM in experiment [2], above 1000 nM in experiment [3] and 2.63 nM in experiment [4].

One may read the IC50 as the midpoint of a concentration-inhibition curve. Low readings indicate greater potency, high ones weaker potency.
